Source: patent publication US9267021B2 (KOSSAN SDN BHD, priority 2010, dated 2016)
Where “and” joins values, the source holds several entries; their conditions need not be identical. Equal entries are not always repeated. Where two headings read alike, the source gives them in different places.

Assays:
[1] = Weight of individuals in the maximization test; type: in vivo, guinea pig
Text: Results by Weight of Individuals

guinea pig = conditions: for erythema evaluation point, individual animal: group IV sensitized with DNCB; for ave. eval. (average of evaluation point) / positive ratio: positive comparison group IV sensitized with DNCB 0.1 w/v %
Protocol: Skin-Sensitize Test (Maximization Test)
This test is carried out by Juridical Foundation “Food and Medicine Safety Center” (Hatano-shi, Kanagawa) based on “Basic view about biological safety test necessary for petition of recognition of production (import) of medical device” (13.02.2003, Consideration of Medicine No. 0213001″ and “Reference materials regarding basic view of biological safety test” (19.03.2003, Examination of medical device No. 36).
Using methanol extraction of Verte Kimax 7th Sense, biological safety evaluation is obtained. And aiming to compare with Verte 710N, skin-sensitize test (maximization test) is carried out on a guinea pig using methanol extraction of Verte Kimax 7th Sense.
At the preparation of prescribing subject, methanol extract of Verte Kimax 7th Sense (hereinafter, shortened to 7th Sense-M) or methanol extract of Verte 710N (hereinafter, shortened to 710N-M) is suspended in ethanol by proportion of 1 mL to the extract obtained 1 g of analyte used for extraction, and 100 v/v % 7th Sense-M ethanol suspension and 100 v/v % 710N-M ethanol suspension are obtained. Further, BLANK obtained from methanol alone is poured into same amount of ethanol as used at the preparation of suspension of 7th Sense-M or 710N-M and 100 v/v % blank suspensions are prepared. In first skin-sensitize test, 100 v/v % 7th Sense-M ethanol suspension and 100 v/v % 710N-M ethanol suspension are replaced with same amount of olive oil, and 100 v/v % 7th Sense-M olive oil suspension and 100 v/v % 710N-M olive oil suspension are prepared. In second skin-sensitize test, 100 v/v % 7th Sense-M ethanol suspension and 100 v/v % 710N-M ethanol suspension are replaced with same amount of olive oil, and 100 v/v % 7th Sense-M olive oil suspension and 100 v/v % 710N-M olive oil suspension are prepared. In causing, 100 v/v % 7th Sense-M ethanol suspension and 100 v/v % 710N-M ethanol suspension are prepared by adding ethanol as stepwise. Further, 100 v/v % corresponding volume blank ethanol solution is used as is.
In first skin-sensitize test (treatment first day) 10 v/v % 7th Sense-M olive oil suspension or 10 v/v % 710N-M olive oil suspension and Freund's complete adjuvant are injected by intradermal injection in upper part of shoulder bone of a guinea pig. At 7 days after treatment, 10 v/v % sodium lauryl sulfate is open spread on region including intradermal injection part, and next day (8 days after treatment) 100 v/v % 7th Sense-M olive oil suspension or 100 v/v % 710N-M olive oil suspension is blockage patched to same region as second skin-sensitize test for 48 hours. In causing (22 days after treatment), 100, 20, 4, 0.8, and 0.16 v/v % ethanol suspension of 7th Sense-M or 710N-M and 100 v/v % corresponding volume BLANK ethanol solution are blockage patched for 24 hours.
Judgment is done according to judgment standard of Draize method after 24 hours and 48 hours from removal of patches.
(numbers of positive animal in group/numbers of animal in group)×100

[2] = causing conc. 0.01 w/v %, judge 24 hrs.
[3] = causing conc. 0.01 w/v %, judge 48 hrs.
[4] = causing conc. 0.1 w/v %, judge 24 hrs.
[5] = causing conc. 0.1 w/v %, judge 48 hrs.

O=[N+]([O-])c1ccc(Cl)c([N+](=O)[O-])c1 [DNCB, 1-chloro-2,4-dinitrobenzene]
weight of individual ([1]; 8th day): 472 and 420 and 444 and 453 and 440
weight, group average ([1]; 8th day): 446
weight of individual ([1]; 15th day): 521 and 426 and 470 and 496 and 485
weight, group average ([1]; 15th day): 480
weight of individual ([1]; 22nd day): 572 and 485 and 521 and 536 and 529
weight, group average ([1]; 22nd day): 529
weight of individual ([1]; 25th day): 590 and 481 and 533 and 544 and 541
weight, group average ([1]; 25th day): 538
weight of individual ([1]; first day): 430 and 375 and 396 and 416 and 395
weight, group average ([1]; first day): 402
weight of individual ([1]; starting date of previous test): 356 and 333 and 354 and 369 and 344
weight, group average ([1]; starting date of previous test): 349
erythema evaluation point, individual animal (guinea pig; causing 0.01 w/v % DNCB, judge time 24 hrs.): 3 (4×) and 4
erythema evaluation point, individual animal (guinea pig; causing 0.01 w/v % DNCB, judge time 48 hrs.): 3 (3×) and 4 (2×)
erythema evaluation point, individual animal (guinea pig; causing 0.1 w/v % DNCB, judge time 24 hrs.): 4 (4×) and 3
erythema evaluation point, individual animal (guinea pig; causing 0.1 w/v % DNCB, judge time 48 hrs.): 4
ave. eval. (average of evaluation point) (guinea pig; [2]): 3.8
positive ratio (guinea pig; [2]): 100
ave. eval. (average of evaluation point) (guinea pig; [3]): 4.0
positive ratio (guinea pig; [3]): 100
ave. eval. (average of evaluation point) (guinea pig; [4]): 4.8
positive ratio (guinea pig; [4]): 100
ave. eval. (average of evaluation point) (guinea pig; [5]): 5.2
positive ratio (guinea pig; [5]): 100
